From ChEMBL document CHEMBL1155593, “Bioactive sesquiterpenes from the basidiomycete Resupinatus leightonii” (J Nat Prod, 2000)
Values after ≈ are worked out from the molar mass of the structure shown. Active and inactive are the calls of the source. No cut-off for these calls is given here.

Legend:
HL-60 = assay: Cytotoxicity against human HL60 cells; format: functional, cell-based
Pyricularia grisea [1] = assay: Inhibition of 1,16-hexadecanediol-induced appressorium formation in germinating conidia of Magnaporthe grisea P1; format: functional, organism-based
Pyricularia grisea [2] = assay: Inhibition of chlorophenylthio-cAMP-induced appressorium formation in germinating conidia of Magnaporthe grisea P1; format: functional, organism-based
Jurkat = assay: Cytotoxicity against human Jurkat cells; format: functional, cell-based
[3] = Cytotoxicity against mouse B16-F1cells; format: functional, cell-based; details: B16-F1
Pyricularia grisea [4] = assay: Inhibition of hydrophobic gel bonded surface-induced appressorium formation in germinating conidia of Magnaporthe grisea P1; format: functional, organism-based
HeLa = assay: Cytotoxicity against human HeLa S3 cells; format: functional, cell-based

Row | Structure (SMILES) | IC50 (HL-60) [µg/mL] | Activity (Pyricularia grisea [1]) | IC50 (Pyricularia grisea [2]) [µg/mL] | IC50 (Jurkat) [µg/mL] | IC50 [3] [µg/mL] | Activity (Pyricularia grisea [4]) | IC50 (HeLa) [µg/mL]
1 | C=C[C@@](C)(O)CC/C=C(\C)CC[C@H](O)C(C)(C)O | 5 (≈ 19.5 µM) | inactive | 10 (≈ 39 µM) | 20 (≈ 78 µM) | 75 (≈ 293 µM) | inactive | 75 (≈ 293 µM)
2 | C/C1=C\[C@@H](O)C/C(C)=C/[C@H](O)[C@H]([C@@H](C)CO)CC1 | 10 (≈ 39.3 µM) | inactive | 50 (≈ 197 µM) | 20 (≈ 78.6 µM) | > 100 | inactive | > 100
